Tests used:
TRPM8 [1] = target: T1, TRPM8 (Mus musculus, UniProt Q8R4D5); experiment: Whole-cell electrophysiological recording, menthol-activated TRPM8 in transfected HEK293T cells; assay type: cell-based; parameters: expressed in transfected cells; host or cells: HEK293T; conditions: negative control peptide
Method: (§1) HEK293T cells were cultured in Dulbecco's modified Eagle culture medium under a 37° C., 5% CO2 environment, 10% fetal bovine serum, penicillin (100 U/mL), and streptomycin ([…]) was needed to add into the culture medium. Transient transfection was conducted by using Lipo 2000 (Invitrogen) transfection kit and following the instruction manual.
(§2) Electrophysiological experiment recordings were performed on the cells within 24˜48 h of transient transfections. Specifically, single channel electrophysiological recordings were performed within 8 h after transfection.
Measurement of the cell currents was respectively performed in the whole-cell recording mode, inside-out recording mode or outside-out recording mode with a HEKA EPC10 amplifier. In the whole cell electrophysiological recordings, glass microelectrodes made of borosilicate material were fire-polished to a original electrode resistance of about 3-6 MΩ. Serial resistance was compensated by 60%. The whole cell electrophysiological recordings were performed at ±80 mV. For single channel electrophysiological recordings, glass microelectrodes were fire-polished to a higher resistance of 6-8 MΩ2. Current signal was sampled at 10 kHz and filtered at 2.9 kHz. Membrane potential of the cell membrane would be clamped at +80 mV. All electrophysiological recordings were performed at room temperature (22° C.) (the maximum variation is 1° C.). […]

TRPM8 [2] = target: T1, TRPM8; experiment: Inside-out single-channel recording of menthol-activated TRPM8 at +80 mV; assay type: cell-based; parameters: expressed in transfected cells; host or cells: HEK293T; conditions: saturating menthol (1 mM) alone
Method: as §1, §2
Measurement of the cell currents was respectively performed in the whole-cell recording mode, inside-out recording mode or outside-out recording mode with a HEKA EPC10 amplifier. In the whole cell electrophysiological recordings, glass microelectrodes made of borosilicate material were fire-polished to a original electrode resistance of about 3-6 MΩ. Serial resistance was compensated by 60%. The whole cell electrophysiological recordings were performed at ±80 mV. For single channel electrophysiological recordings, glass microelectrodes were fire-polished to a higher resistance of 6-8 MΩ2. Current signal was sampled at 10 kHz and filtered at 2.9 kHz. Membrane potential of the cell membrane would be clamped at +80 mV. All electrophysiological recordings were performed at room temperature (22° C.) (the maximum variation is 1° C.).
There were different bath and pipette solutions prepared for different ion channels current measurement. For ion channels such as TRPM8, TRPV1, TRPV2, TRPV3 and TRPA1, the formula of the bath and pipette solutions was: 130 mM NaCl, 0.2 mM EDTA and 3 mM HEPES, pH=7.2. For the current measurement of TRPM4 ion channel, the formula of the bath solution was: 130 mM NaCl and 3 mM HEPES, pH=7.2, and the formula of the pipette solution was: 500 μM CaCl2), 130 mM NaCl and 3 mM HEPES, pH=7.2. For the current measurement of TRPM2 ion channel, the formula of the bath solution was: 147 mM NaCl, 2 mM KCl, 1 mM MgCl2, 10 mM HEPES, 2 mM CaCl2) 13 mM Glucose, pH=7.4, and the formula of the pipette solution was: 147 mM NaCl, 1 mM MgCl2, 10 mM HEPES, pH=7.4. For the current measurement of Nav1.5, Nav1.7 ion channels, the formula of the bath solution was: 140 mM NaCl, 3 mM KCl, 1 mM MgCl2, 1 mM CaCl2), 10 mM HEPES, pH=7.2 and the formula of the pipette solution was: 140 mM CsF, 1 mM EGTA, 10 mM NaCl, 10 mM MgCl2, 3 mM KCl, pH=7.2. To evoke sodium channel current, the membrane potential was increased from −80 mV to +10 mV.
A rapid solution changer with a gravity-driven perfusion system (RSC-200, BioLogic) was used to rapidly perfuse specific solutions into the cells to be tested. Each solution was delivered through a separate tube so that there is no mixing of solutions. The glass microelectrode with a membrane patch was placed directly below the outlet of the perfusion tube during the electrophysiology recordings.

T1 sequence (Q8R4D5 whole entry): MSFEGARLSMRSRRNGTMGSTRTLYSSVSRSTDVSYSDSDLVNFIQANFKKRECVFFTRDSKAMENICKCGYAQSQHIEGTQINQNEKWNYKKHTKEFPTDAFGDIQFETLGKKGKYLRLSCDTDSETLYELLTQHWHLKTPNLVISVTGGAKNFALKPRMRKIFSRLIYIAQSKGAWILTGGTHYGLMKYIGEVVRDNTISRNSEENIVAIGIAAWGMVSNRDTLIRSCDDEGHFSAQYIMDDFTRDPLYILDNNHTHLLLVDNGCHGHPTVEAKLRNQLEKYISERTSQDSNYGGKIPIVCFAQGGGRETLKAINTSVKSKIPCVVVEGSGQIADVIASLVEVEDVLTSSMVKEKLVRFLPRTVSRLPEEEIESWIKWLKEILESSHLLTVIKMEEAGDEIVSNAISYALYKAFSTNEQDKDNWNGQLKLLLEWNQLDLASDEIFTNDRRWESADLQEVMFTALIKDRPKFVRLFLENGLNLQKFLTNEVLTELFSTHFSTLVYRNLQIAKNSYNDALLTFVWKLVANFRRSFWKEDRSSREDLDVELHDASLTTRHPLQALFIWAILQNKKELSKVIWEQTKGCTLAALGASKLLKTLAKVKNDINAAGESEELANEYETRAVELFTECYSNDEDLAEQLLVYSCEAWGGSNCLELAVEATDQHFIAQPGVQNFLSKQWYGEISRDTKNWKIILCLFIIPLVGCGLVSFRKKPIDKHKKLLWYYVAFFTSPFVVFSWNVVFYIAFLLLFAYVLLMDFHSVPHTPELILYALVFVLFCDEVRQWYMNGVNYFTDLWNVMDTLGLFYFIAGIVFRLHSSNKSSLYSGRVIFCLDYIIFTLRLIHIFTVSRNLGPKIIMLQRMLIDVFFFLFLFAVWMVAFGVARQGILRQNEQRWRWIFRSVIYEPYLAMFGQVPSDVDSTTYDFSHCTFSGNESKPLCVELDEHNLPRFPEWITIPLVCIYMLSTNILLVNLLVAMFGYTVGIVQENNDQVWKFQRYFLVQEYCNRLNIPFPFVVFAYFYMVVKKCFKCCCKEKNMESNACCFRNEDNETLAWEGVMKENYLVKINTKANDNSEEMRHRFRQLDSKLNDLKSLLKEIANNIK

Compound	inhibition of TRPM8 (TRPM8 [1])	maximum open probability of TRPM8 activation (TRPM8 [2]) [%]	single-channel conductance of TRPM8 (TRPM8 [2]; n=3) [pS]
CDHRRRQARYRRC [S-DeC-1.2, negative control polypeptide, reference compound]	did not inhibit TRPM8	–	–
CC1CCC(C(C)C)C(O)C1 (stereo not drawn) [menthol, reference compound]	–	~70	58.83±1.85

From US20240417428A1, “POLYPEPTIDE FOR INHIBITING TRPM8 AND USE THEREOF” (ZHEJIANG UNIVERSITY, priority 2021, published 2024)
